Data reported in US20140058103A1, “Inhibitors of PI3K-Delta and Methods of Their Use and Manufacture” (Exelixis, Inc., priority 2010, published 2014).

Target: PI3K delta (Homo sapiens, UniProt O00329)
Experiment: Luciferase-coupled chemiluminescence kinase assay (ATP consumption, KinaseGlo)
Type: biochemical
Procedure, shortened: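 ATP consumption measured by KinaseGlo luciferase chemiluminescence after a 2 h reaction at ambient temperature, with ATP at or below the kinase KM. Ten inhibitor concentrations per curve; IC50 from four-parameter nonlinear regression.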

PI3K delta, sequence (O00329 whole entry): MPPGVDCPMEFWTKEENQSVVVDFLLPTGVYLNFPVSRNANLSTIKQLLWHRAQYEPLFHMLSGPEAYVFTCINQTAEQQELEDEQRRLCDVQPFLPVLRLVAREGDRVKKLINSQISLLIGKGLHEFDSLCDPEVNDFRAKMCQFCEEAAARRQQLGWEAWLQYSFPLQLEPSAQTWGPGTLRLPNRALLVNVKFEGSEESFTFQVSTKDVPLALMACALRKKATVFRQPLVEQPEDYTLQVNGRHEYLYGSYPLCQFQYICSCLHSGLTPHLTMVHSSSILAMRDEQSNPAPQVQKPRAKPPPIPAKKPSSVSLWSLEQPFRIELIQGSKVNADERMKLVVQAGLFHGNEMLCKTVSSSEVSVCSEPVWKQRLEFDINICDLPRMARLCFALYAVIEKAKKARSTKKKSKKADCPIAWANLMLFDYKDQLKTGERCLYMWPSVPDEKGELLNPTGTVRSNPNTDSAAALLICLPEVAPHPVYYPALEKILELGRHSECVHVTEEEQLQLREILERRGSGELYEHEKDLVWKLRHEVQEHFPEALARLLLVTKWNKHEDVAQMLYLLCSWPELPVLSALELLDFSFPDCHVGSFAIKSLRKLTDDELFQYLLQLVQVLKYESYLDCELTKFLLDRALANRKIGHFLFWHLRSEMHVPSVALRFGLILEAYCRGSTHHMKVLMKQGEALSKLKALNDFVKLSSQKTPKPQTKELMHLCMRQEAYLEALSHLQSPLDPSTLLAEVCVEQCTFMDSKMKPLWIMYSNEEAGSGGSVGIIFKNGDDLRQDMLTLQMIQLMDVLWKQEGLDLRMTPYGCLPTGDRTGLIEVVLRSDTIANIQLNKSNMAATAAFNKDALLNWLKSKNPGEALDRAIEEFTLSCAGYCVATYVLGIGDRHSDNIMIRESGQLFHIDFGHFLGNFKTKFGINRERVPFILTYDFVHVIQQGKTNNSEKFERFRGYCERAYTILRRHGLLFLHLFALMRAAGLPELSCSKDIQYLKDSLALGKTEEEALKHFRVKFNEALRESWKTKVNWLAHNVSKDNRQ
PI3K delta, sequence (P27986 whole entry partner): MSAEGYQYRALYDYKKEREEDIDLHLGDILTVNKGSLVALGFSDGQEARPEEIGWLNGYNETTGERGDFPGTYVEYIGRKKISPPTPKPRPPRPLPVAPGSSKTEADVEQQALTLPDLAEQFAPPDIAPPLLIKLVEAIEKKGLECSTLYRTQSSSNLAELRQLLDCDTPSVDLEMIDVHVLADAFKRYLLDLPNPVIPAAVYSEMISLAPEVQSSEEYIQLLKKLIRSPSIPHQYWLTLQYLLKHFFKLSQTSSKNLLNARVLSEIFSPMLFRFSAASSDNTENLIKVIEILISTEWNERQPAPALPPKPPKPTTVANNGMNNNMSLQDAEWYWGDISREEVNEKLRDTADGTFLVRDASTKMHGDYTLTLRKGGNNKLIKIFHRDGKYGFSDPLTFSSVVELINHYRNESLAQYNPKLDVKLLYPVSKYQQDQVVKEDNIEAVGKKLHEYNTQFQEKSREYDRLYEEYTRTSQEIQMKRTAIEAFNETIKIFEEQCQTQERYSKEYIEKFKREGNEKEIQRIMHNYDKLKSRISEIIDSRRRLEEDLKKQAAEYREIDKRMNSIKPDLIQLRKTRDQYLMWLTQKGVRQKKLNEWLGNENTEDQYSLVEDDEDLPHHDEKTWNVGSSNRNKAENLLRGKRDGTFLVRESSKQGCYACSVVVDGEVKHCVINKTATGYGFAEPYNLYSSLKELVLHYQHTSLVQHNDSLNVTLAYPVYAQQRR

Structure (SMILES)	IC50
Cn1cc(-c2nc3c(N4CC[C@H](c5ccccc5)[C@@H](O)C4)ncnc3n2C)cn1 [Compound 346, (3R,4R)-1-[9-methyl-8-(1-methyl-1H-pyrazol-4-yl)-9H-purin-6-yl]-4-phenylpiperidin-3-ol]	250 to 500 nM
CC(C)c1nnc(-c2nc3c(N4CCC5(CC4)C(=O)Nc4ccccc45)ncnc3n2C)o1 [Compound 174, 1′-{9-methyl-8-[5-(1-methylethyl)-1,3,4-oxadiazol-2-yl]-9H-purin-6-yl}spiro[indole-3,4′-piperidin]-2(1H)-one]	< 50 nM
Cn1c(C(=O)NCC2CC2)nc2c(N3CCC(c4c[nH]c5ccccc45)CC3)ncnc21 [Compound 100, N-(cyclopropylmethyl)-6-[4-(1H-indol-3-yl)piperidin-1-yl]-9-methyl-9H-purine-8-carboxamide]	500 to 1500 nM
Cn1c(-c2ccc(Cl)nc2)nc2c(N3CCC(n4c(=O)[nH]c5ccccc54)CC3)ncnc21 [Compound 283, 1-{1-[8-(6-chloropyridin-3-yl)-9-methyl-9H-purin-6-yl]piperidin-4-yl}-1,3-dihydro-2H-benzimidazol-2-one]	< 50 nM
Cn1c(C(=O)NCC2CC2)nc2c(N3CC=C(n4c(=O)[nH]c5ccccc54)CC3)ncnc21 [Compound 289, N-(cyclopropylmethyl)-9-methyl-6-[4-(2-oxo-2,3-dihydro-1H-benzimidazol-1-yl)-3,6-dihydropyridin-1(2H)-yl]-9H-purine-8-carboxamide]	50 to 250 nM
CCCNC(=O)c1nc2c(N3CCC4(CC3)C(=O)Nc3ccccc34)ncnc2n1C [Compound 36, 9-methyl-6-(2-oxo-1,2-dihydro-1′H-spiro[indole-3,4′-piperidin]-1′-yl)-N-propyl-9H-purine-8-carboxamide]	50 to 250 nM
CC(C)CNC(=O)c1nc2c(N3CCC4(CC3)C(=O)Nc3ccccc34)ncnc2n1C1CC1 [Compound 176, 9-cyclopropyl-N-(2-methylpropyl)-6-(2-oxo-1,2-dihydro-1′H-spiro[indole-3,4′-piperidin]-1′-yl)-9H-purine-8-carboxamide]	50 to 250 nM
Cn1c(C(=O)NCc2cccc(F)c2)nc2c(N3CCC(n4c(=O)[nH]c5ccccc54)CC3)ncnc21 [Compound 58, N-[(3-fluorophenyl)methyl]-9-methyl-6-[4-(2-oxo-2,3-dihydro-1H-benzimidazol-1-yl)piperidin-1-yl]-9H-purine-8-carboxamide]	50 to 250 nM
CCn1c(C(=O)NCC(F)(F)F)nc2c(N3CCC(n4c(=O)[nH]c5ccccc54)CC3)ncnc21 [Compound 155, 9-ethyl-6-[4-(2-oxo-2,3-dihydro-1H-benzimidazol-1-yl)piperidin-1-yl]-N-(2,2,2-trifluoroethyl)-9H-purine-8-carboxamide]	< 50 nM
Cn1c(C(=O)NCC(F)(F)F)nc2c(N3CCC(n4c(=O)[nH]c5ncccc54)CC3)ncnc21 [Compound 319, 9-methyl-6-[4-(2-oxo-2,3-dihydro-1H-imidazo[4,5-b]pyridin-1-yl)piperidin-1-yl]-N-(2,2,2-trifluoroethyl)-9H-purine-8-carboxamide]	< 50 nM
CCn1c(C(=O)N[C@H]2CC[C@H](O)CC2)nc2c(N3CCC(n4c(=O)[nH]c5ccccc54)CC3)ncnc21 [Compound 154, 9-ethyl-N-(trans-4-hydroxycyclohexyl)-6-[4-(2-oxo-2,3-dihydro-1H-benzimidazol-1-yl)piperidin-1-yl]-9H-purine-8-carboxamide]	< 50 nM
Cn1c(C(=O)N2CC[C@H](F)C2)nc2c(N3CCC4(CC3)C(=O)Nc3ccccc34)ncnc21 [Compound 109, 1′-(8-{[(3S)-3-fluoropyrrolidin-1-yl]carbonyl}-9-methyl-9H-purin-6-yl)spiro[indole-3,4′-piperidin]-2(1H)-one]	50 to 250 nM
Cn1cc(-c2nc3c(N4CCN(S(=O)(=O)c5cc(Cl)ccc5Cl)CC4)ncnc3n2C)cn1 [Compound 379, 6-{4-[(2,5-dichlorophenyl)sulfonyl]piperazin-1-yl)-9-methyl-8-(1-methyl-1H-pyrazol-4-yl)-9H-purine]	50 to 250 nM
CCn1c(-c2cncnc2)nc2c(N3CCC(n4c(=O)[nH]c5ccccc54)CC3)ncnc21 [Compound 294, 1-[1-(9-ethyl-8-pyrimidin-5-yl-9H-purin-6-yl)piperidin-4-yl]-1,3-dihydro-2H-benzimidazol-2-one]	< 50 nM
Cn1c(-c2cccnc2)nc2c(N3CCC(n4c(=O)[nH]c5ccccc54)CC3)ncnc21 [Compound 268, 1-[1-(9-Methyl-8-pyridin-3-yl-9H-purin-6-yl)piperidin-4-yl]-1,3-dihydro-2H-benzimidazol-2-one]	< 50 nM
Cn1cc(-c2nc3c(N4CCN(S(=O)(=O)c5c(Cl)cccc5Cl)CC4)ncnc3n2C)cn1 [Compound 391, 6-{4-[(2,6-dichlorophenyl)sulfonyl]piperazin-1-yl}-9-methyl-8-(1-methyl-1H-pyrazol-4-yl)-9H-purine]	250 to 500 nM
Cn1c(C(=O)NCCCCO)nc2c(N3CCC4(CC3)C(=O)Nc3ccccc34)ncnc21 [Compound 13, N-(4-hydroxybutyl)-9-methyl-6-(2-oxo-1,2-dihydro-1′H-spiro[indole-3,4′-piperidin]-1′-yl)-9H-purine-8-carboxamide]	50 to 250 nM
CC(C)CCNC(=O)c1nc2c(N3CCC(n4c(=O)[nH]c5ccccc54)CC3)ncnc2n1C [Compound 72, 9-methyl-N-(3-methylbutyl)-6-[4-(2-oxo-2,3-dihydro-1H-benzimidazol-1-yl)piperidin-1-yl]-9H-purine-8-carboxamide]	50 to 250 nM
Cn1c(C(=O)NCC(F)(F)F)nc2c(N3CCC(n4c(=O)[nH]c5ccccc54)CC3)ncnc21 [Compound 60, 9-methyl-6-[4-(2-oxo-2,3-dihydro-1H-benzimidazol-1-yl)piperidin-1-yl]-N-(2,2,2-trifluoromethyl)-9H-purine-8-carboxamide]	< 50 nM
Cn1c(C(=O)NCCCO)nc2c(N3CCC(n4c(=O)[nH]c5ccccc54)CC3)ncnc21 [Compound 48, N-(3-hydroxypropyl)-9-methyl-6-[4-(2-oxo-2,3-dihydro-1H-benzimidazol-1-yl)piperidin-1-yl]-9H-purine-8-carboxamide]	50 to 250 nM

More lines, now with the values ahead:

IC50	Structure (SMILES)
< 50 nM	Cn1c(-c2c[nH]c3ncccc23)nc2c(N3CCC(n4c(=O)[nH]c5ccccc54)CC3)ncnc21 [Compound 301, 1-{1-[9-methyl-8-(1H-pyrrolo[2,3-b]pyridin-3-yl)-9H-purin-6-yl]piperidin-4-yl}-1,3-dihydro-2H-benzimidazol-2-one]
50 to 250 nM	Cn1c(C(=O)NCC2CCOCC2)nc2c(N3CCC4(CC3)C(=O)Nc3ccccc34)ncnc21 [Compound 77, 9-methyl-6-(2-oxo-1,2-dihydro-1′H-spiro[indole-3,4′-piperidin]-1′-yl)-N-(tetrahydro-2H-pyran-4-ylmethyl)-9H-purine-8-carboxamide]
250 to 500 nM	Cn1c(C(=O)N2CCC2)nc2c(N3CCC4(CC3)C(=O)Nc3ccccc34)ncnc21 [Compound 90, 1′-[8-(azetidin-1-ylcarbonyl)-9-methyl-9H-purin-6-yl]spiro[indole-3,4′-piperidin]-2(1H)-one]
< 50 nM	Cc1ncc(-c2nc3c(N4CCC(n5c(=O)[nH]c6ncccc65)CC4)ncnc3n2C)n1C [Compound 336, 1-{1-[8-(1,2-dimethyl-1H-imidazol-5-yl)-9-methyl-9H-purin-6-yl]piperidin-4-yl)-1,3-dihydro-2H-imidazo[4,5-b]pyridin-2-one]
500 to 1500 nM	Cn1cc(-c2nc3c(N4CCN(S(=O)(=O)c5ccc(Cl)cc5Cl)CC4)ncnc3n2C)cn1 [Compound 392, 6-{4-[(2,4-dichlorophenyl)sulfonyl]piperazin-1-yl}-9-methyl-8-(1-methyl-1H-pyrazol-4-yl)-9H-purine]
< 50 nM	CCn1cc(-c2nc3c(N4CCC5(CC4)C(=O)Nc4ccccc45)ncnc3n2CC)cn1 [Compound 250, 1′-[9-ethyl-8-(1-ethyl-1H-pyrazol-4-yl)-9H-purin-6-yl]spiro[indole-3,4′-piperidin]-2(1H)-one]
< 50 nM	CCn1c(C(=O)NCC2CCC2)nc2c(N3CCC(n4c(=O)[nH]c5ccccc54)CC3)ncnc21 [Compound 185, N-(cyclobutylmethyl)-9-ethyl-6-[4-(2-oxo-2,3-dihydro-1H-benzimidazol-1-yl)piperidin-1-yl]-9H-purine-8-carboxamide]
< 50 nM	CCn1c(-c2cnc(N)nc2)nc2c(N3CCC(n4c(=O)[nH]c5ccccc54)CC3)ncnc21 [Compound 304, 1-{1-[8-(2-aminopyrimidin-5-yl)-9-ethyl-9H-purin-6-yl]piperidin-4-yl)-1,3-dihydro-2H-benzimidazol-2-one]
< 50 nM	Cn1c(-n2cnc3ccccc32)nc2c(N3CCC(n4c(=O)[nH]c5ccccc54)CC3)ncnc21 [Compound 259, 1-{1-[8-(1H-benzimidazol-1-yl)-9-methyl-9H-purin-6-yl]piperidin-4-yl}-1,3-dihydro-2H-benzimidazol-2-one]
500 to 1500 nM	Cn1c(-c2ccccc2)nc2c(N3CCC(n4c(=O)[nH]c5ccccc54)CC3)ncnc21 [Compound 267, 1-[1-(9-methyl-8-phenyl-9H-purin-6-yl)piperidin-4-yl]-1,3-dihydro-2H-benzimidazol-2-one]
< 50 nM	Cn1c(-c2ccc(C(F)(F)F)nc2)nc2c(N3CCC(n4c(=O)[nH]c5ncccc54)CC3)ncnc21 [Compound 315, 1-(1-{9-methyl-8-[6-(trifluoromethyl)pyridin-3-yl]-9H-purin-6-yl}piperidin-4-yl)-1,3-dihydro-2H-imidazo[4,5-b]pyridin-2-one]
< 50 nM	CCn1c(C(=O)NC(C)C2CC2)nc2c(N3CCC(n4c(=O)[nH]c5ccccc54)CC3)ncnc21 (stereo not drawn) [Compound 187, N-(1-cyclopropylethyl)-9-ethyl-6-[4-(2-oxo-2,3-dihydro-1H-benzimidazol-1-yl)piperidin-1-yl]-9H-purine-8-carboxamide]
500 to 1500 nM	Cn1c(C(=O)NCC2CC2)nc2c(N3CC[C@H](c4ccccc4)[C@@H](O)C3)ncnc21 [Compound 235, N-(cyclopropylmethyl)-6-[(3R,4R)-3-hydroxy-4-phenylpiperidin-1-yl]-9-methyl-9H-purine-8-carboxamide]
